In one series the test system is MDSCs. Nature of the series: ex vivo differentiated MDSCs treated with compound, marker expression by flow cytometry (FIG. 1a). The settings on record: BML-275 500 nM alone or with oleuropein 50 μM; MDSCs. Type of series: cell-based, mouse. The method, then:
(§1) Immunosuppressive myeloid cell subsets resembling tumor-infiltrating subsets (g-MDSCs, m-MDSCs and TAMs) were differentiated from mouse bone marrow following published procedures using conditioning medium produced by LLC tumor cells stably expressing GMCSF and MCSF cells. g- and m-MDSCs were purified using the myeloid-derived suppressor cell isolation kit (Miltenyi Biotec, Bergisch, Germany) according to manufacturer's recommendations. MDSCs and TAMs were seeded with 500 nM BML-275 or 50 μM oleuropein and incubated for seven days.
(§2) Surface and intracellular staining were carried out as described before with the following fluorochrome-conjugated antibody clones: AF488 anti-CD49d (R1-2), PE anti-CD4 (GK1.5), APCanti-CD8(53-6.7), brilliant Violet 510™ anti-I-A/I-E (M5/114.15.2,PE/Cyanine7anti-Ly-6G (1A8), and APC anti-CD80 (16-10A1) (Biolegend), FITC anti-IL-12 (C15.6) and BV421 anti-IL-2 (JES6-5H4) (BD Bioscience), APC-Vio® 770 anti-Ly-6C (REA796), PE REAfinity™ anti-F4/80 (REA126), and APC anti-CD68 (REA886) (Miltenyi), PerCP-Cyanine5.5 Anti-Human/Mouse CD11b (M1/70) (Tonbo), and AF488 anti-IFNγ (Clone XMG1.2) (BD Pharmigen). For human cells, it was used the following fluorochrome-conjugated antibodies: PerCP-Cy5.5-anti-CD11b (integrina alfa M) (M1/70), Violet Fluor 450 anti-CD14 antibody (61D3) (Tonbo), PE anti-CD115 (CSF-1R) (9-4D2-1E4) (Biolegend), PE-Cy™7 anti-CD11c (Clone B-ly6) (BD Bioscience), and APC anti-HLA-DR (REA517) (Miltenyi).
(§3) Data were collected using the FACSCanto Flow Cytometer (BD Biosciences) for ex vivo and in vitro experiments at Navarrabiomed Biomedical Research Center and Cyroflex LX flow cytometer (Beckman Counter). Data were analyzed with Flowjo.
On the technique in general: Flow cytometry measures light scatter and fluorescence of single cells or particles in a stream.

Another series has as its system TAMs. In words: ex vivo differentiated TAMs treated with compound, marker expression by flow cytometry (FIG. 1b). In kind it is cell-based, mouse. The settings on record: BML-275 500 nM. The method, then:
as §1, §2, §3

Series [1] deals with CD4 T cells. Nature of the series: mixed lymphocyte reaction (MLR) with MDSCs as stimulator cells (FIG. 1c,d). In kind it is cell-based, mouse. The settings on record: treated MDSCs as stimulators; 5 days. The procedure: (§4) MLR were carried out following standard procedures. Briefly, 100,000 MDSCs or TAMs from C57BL/6 mice were co-cultured in 96-well plates with 100,000 lymphocytes from BALB/c mice. Co-cultured cells were treated with 50 µM oleuropein and compared with control vehicle. After 5 days, T-lymphocyte activation, differentiation and proliferation were assessed by flow cytometry. T-cell activation and proliferation markers (Ki-67) and pro-inflammatory cytokine production (IL-2 and IFNγ) were evaluated by flow cytometry in CD4 and CD8 T cells as described before.
as §2

The subject of series [2] is CD4 T cells. Nature of the series: mixed lymphocyte reaction (MLR) with TAMs as stimulator cells (FIG. 1c,d). In kind it is cell-based, mouse. The settings on record: treated TAMs as stimulators; 5 days. The method, then:
as §4
as §2, with “For human cells, it was used the following fluorochrome-conjugated antibodies: PerCP-Cy5.5-anti-CD11b (integrina alfa M) (M1/70), Violet Fluor 450 anti-CD14 antibody (61D3) (Tonbo), PE anti-CD115 (CSF-1R) (9-4D2-1E4) (Biolegend), PE-Cy™7 anti-CD11c (Clone B-ly6) (BD Bioscience), and APC anti-HLA-DR (REA517) (Miltenyi).” left out

For another series, the system named is MDSC and CD3 T cells. The settings on record: related art; cited from earlier work.

Each structure is given as a SMILES string.

Take `c1cc(-c2cnn3cc(-c4ccc(OCCN5CCCCC5)cc4)cnc23)ccn1` [BML-275, reference compound]: the “expression of CD49d” value in the series with MDSCs was “reduced”. The “CD68 (M1 marker)” value in the series on TAMs (AMPK inhibition in TAMs) is given as “increased”. Further, the “cells co-expressing MHC-II and CD80” value in the series on TAMs (oleuropein 50 μM, TAMs) was “significant elevation”. The “CD4 T cell stimulation assessed by IFNγ and IL-2 production” value in the series on CD4 T cells [1] and in the series with CD4 T cells [2] was “weaker” throughout.

Consider `Nc1ccn([C@@H]2O[C@H](CO)[C@@H](O)C2(F)F)c(=O)n1` [gemcitabine], for which the “effect on MDSC and CD3 T cells” value in the series on MDSC and CD3 T cells is “simultaneously reduces the MDSC and the CD3 T cells”.

The record behind these values is patent US20260364101A1, “OLEUROPEIN IN THE MANAGEMENT OF CANCER” (FUNDACIÓN MIGUEL SERVET, priority 2023, published 2026).
